Two substances from patent US20100267803A1, “Regulators Of Fat Metabolism As Anti-Cancer Targets” (The Research Foundation of State University Of New York, priority 2008, published 2010) can be followed below.

Format in all cases: cell-based, human
The test system of one data set is FADS2 mRNA. Kind of data set: qRT-PCR of FADS2 mRNA in BT474 cells. The conditions noted are these: shRNA or 20 μM GW9662 for 48 h. As to the method: (§1) FIG. 4 NR1D1 and PBP coordinate fatty acid metabolism in breast cancer cells. (a) BT474, MDA-MB-361, MCF-7 and HMEC cells were stained with Oil-Red O lipid and hematoxylin nuclear stains. (b) Fat stores were quantified by BODIPY 493/503 lipid probe staining (Error bars are s.d from 3 individual experiments). (c) FASN, ACLY, ACACA and FADS2 mRNA levels of BT474 cells treated with luciferase (control), PBP or NR1D1 shRNAs, or with vehicle and 20 μM of GW9662 for 48 h, analyzed by qRT-PCRs. (Error bars are s.d from 3 experiments; ***P<0.001, **P=0.005) (d) BT474 cells were transfected with FASN, ACLY and ACACA shRNAs and co-transfected with GFP. Transfected cells were counted at 24 h and 72 h and the 72h-to-24 h ratio for each shRNA was calculated and expressed as % of the control shRNA (luciferase). (Error bars are s.d from 3 individual experiments; **P<0.01, ***P<0.002). (e) BODIPY images and (f) quantification of BT474 cells transfected with luciferase (control), PBP or NR1D1 shRNAs and co-transfected with DsRed (Error bars are s.d from 3 individual experiments; ***P<0.03). Arrows indicate transfected cells.
(§2) Cell viability—apoptosis assays. […] At least 30 fields were imaged per single experiment. […] Immunoblotting. […] PCR reaction was run using standard conditions.

The subject of data set [1] is ERBB2 overexpressing (BT474, MDA-MB-361) breast cancer cell lines. Description: alamarBlue proliferation of shRNA-transfected ERBB2-overexpressing cell lines. The conditions noted are these: shRNA transfection. The source says:
FIG. 1 An RNAi screen targeting genes overexpressed in breast cancer. (a) Three transfection mixes were produced for each shRNA and each was transfected into triplicate wells of BT474 cells. AlamarBlue was used to monitor cell proliferation and viability. […] (b) The genetic and functional linkage of NR1D1 and PBP. Mb refers to map position on chromosome 17. (c) ERBB2-overexpressing (OEX) and ERBB2 non-overexpressing (non-OEX) breast cancer cell lines as well as the (non-OEX) HMEC and HEK 293 cells were transfected and assayed as in (a). […] Genes clustered with ERBB2 are boxed.
To assess the specificity of effect of each shRNA on cell proliferation, those causing the greatest decrease in BT474 cell proliferation were transfected in a variety of cell lines, including ERBB2 overexpressing (BT474, MDA-MB-361) and nonoverexpressing breast cancer cell lines (MCF-7, MDA-MB-453, MDA-MB-468), normal human mammary epithelial cells (HMECs) and a non-breast tumorigenic cell line (HEK 293FT). […] PBP, NRID1 and PFN2 shRNAs clustered with ERBB2.
RNAi screen, transfections and constructs. The flag-RevErba (flag-NR1D1) overexpression construct was a generous gift of M. Lazar. The LSXN-neu* (ERBB2) overexpression construct was a generous gift of L. Petti. shRNA constructs were expressed from the pSHAG-MAGIC 2 (pSM2) vector and derived from a genome-wide shRNA library^31. ShRNAs targeting the firefly (Photinus pyralis) luciferase gene were used as controls. Transfection efficiency was monitored by co-transfection with a modified MSCV-Puro vector expressing green fluorescent protein (GFP). The alamarBlue (Biosource) assay was performed 96 h post-transfection, since BT474 cells have a population doubling time of ˜100 hours. […] For quantification of alamarBlue we used a BioTek HT Synergy plate reader. AlamarBlue values from the RNAi screens on other cell types were also calculated as above and subjected to hierarchical cluster analysis using Cluster 2.11 (M. Eisen Lab).
On the technique in general: Resazurin is reduced to fluorescent resorufin, in cell work by metabolically active cells.

For the next data set, the system named is ACACA mRNA. Description: qRT-PCR of ACACA mRNA in BT474 cells. Conditions: shRNA or 20 μM GW9662 for 48 h. As to the method: as §1, §2
(In qPCR the cycle at which signal appears reflects the starting amount.)

In the next data set the test system is BT474 cells. Kind of data set: Neutral fat stores by BODIPY 493/503 staining. The conditions noted are these: first 48 h after transfection. As to the method:
as §1
Metabolic assays. […] Transfected cells were monitored by co-transfecting with the pDsRed-Monomer-N1 vector (Clontech). Cells were imaged and analyzed using the In Cell Analyzer 1000—In Cell Investigator 3.4 system (GE Biosciences), as described above. […]

The subject of the next data set is FASN mRNA. Description: qRT-PCR of FASN mRNA in BT474 cells. Conditions: shRNA or 20 μM GW9662 for 48 h. As to the method: as §1, §2

Turning to “NR1D1 shRNA: shRNA, mature sequence GGCATGGTGTTACTGTGTA (shRNA)”, the FADS2 transcript levels result in the data set with FADS2 mRNA is “downregulated”. The “viability of ERBB2-positive cells” value in data set [1] is listed as “specifically decreased the viability of ERBB2-positive cells”. For the same substance, the ACACA transcript level entry in the data set on ACACA mRNA is “reduced”. In addition, the “decrease in fat stores” value with BT474 cells is reported as 47%. For the same substance, the FASN transcript level entry in the data set with FASN mRNA is “reduced”.

On to “PBP shRNA: shRNA, mature sequence CCGAGTTCCTCTTATCCTA (shRNA)”, for which, in the data set with FADS2 mRNA, the FADS2 transcript levels result is given as “downregulated”. Besides, the “viability of ERBB2-positive cells” value in data set [1] is “specifically decreased the viability of ERBB2-positive cells”. The ACACA transcript level result in the data set on ACACA mRNA was “reduced”. Moreover, the “decrease in fat stores” value in the data set with BT474 cells stood at 30%. The FASN transcript level entry with FASN mRNA is “reduced”.
